Results reported in patent publication US4710568A, “Carbapenem antibiotics” (priority 1986, dated 1987).
In brackets after ≈: the same amount, converted by molar mass. Where two headings read alike, the source gives them in different places.

What was measured:
[1] = system: S. pneumoniae A-9585; experiment: MIC by tube dilution in Nutrient Broth; type: cell-based; conditions: additional data; overnight at 37° C.
[2] = system: S. pyogenes A-9604; experiment: MIC by tube dilution in Nutrient Broth; type: cell-based; conditions: additional data; overnight at 37° C.
[3] = system: S. aureus A-9537; experiment: MIC by tube dilution in Nutrient Broth; type: cell-based; conditions: additional data, overnight at 37° C.
[4] = system: S. aureus (Pen-res.) A-9606; experiment: MIC by tube dilution in Nutrient Broth; type: cell-based; conditions: additional data, overnight at 37° C.
[5] = system: S. faecalis A20688; experiment: MIC by tube dilution in Nutrient Broth; type: cell-based; conditions: additional data; overnight at 37° C.
[6] = system: E. coli A15119; experiment: MIC by tube dilution in Nutrient Broth; type: cell-based; conditions: overnight at 37° C.
[7] = system: K. pneumoniae A20468; experiment: MIC by tube dilution in Nutrient Broth; type: cell-based; conditions: additional data; overnight at 37° C.
[8] = system: P. mirabilis A-9900; experiment: MIC by tube dilution in Nutrient Broth; type: cell-based; conditions: additional data; overnight at 37° C.
[9] = system: P. morganii A15153; experiment: MIC by tube dilution in Nutrient Broth; type: cell-based; conditions: additional data (M. morganii A15153); overnight at 37° C.
[10] = system: P. rettgeri A22424; experiment: MIC by tube dilution in Nutrient Broth; type: cell-based; conditions: additional data; overnight at 37° C.
[11] = system: E. cloacae A-9656; experiment: MIC by tube dilution in Nutrient Broth; type: cell-based; conditions: additional data; overnight at 37° C.
[12] = system: P. aeruginosa A-9843A; experiment: MIC by tube dilution in Nutrient Broth; type: cell-based; conditions: additional data; overnight at 37° C.
[13] = system: E. cloacae A-9659; experiment: MIC by tube dilution in Nutrient Broth; type: cell-based; conditions: additional data; overnight at 37° C.
[14] = half-life in phosphate buffer pH 7.4; type: physicochemical; conditions: for t1/2: pH 7.4
Description: To a solution of p-nitrobenzyl 3-[2-(1-pyridinium)ethylthio]-6α-[1-(R)-hydroxyethyl]-7-oxo-1-azabicyclo(3.2.0)hept-2-ene-carboxylate diphenylphosphate (0.16 g, 0.22 mmol) in wet tetrahydrofuran (10 mL) was added ether (10 mL), potassium phosphate monobasic-sodium hydroxide buffer pH 7.4 (16 mL, 0.05M) and 10% palladium on charcoal (0.16 g). The resulting mixture was hydrogenated under 40 psi for 1 h at 25° C. The two phases were separated and the organic phase was extracted with water (2×3 mL). The aqueous solutions were combined, washed with ether (2×10 mL) and poured on top of a column (1.5×6.2 cm) of μ-bondapak C-18 after the traces of organic solvents have been removed under vacuum.
To a solution of p-nitrobenzyl 3-[2-(1-(3,5-dimethylpyridinium))ethylthio]-6α-[1-(R)-hydroxyethyl]- 7-oxo-1-azabicyclo(3.2.0)hept-2-ene-2-carboxylate diphenylphosphate (0.600 g, 0.80 mmol) in wet tetrahydrofuran (36 mL) was added ether (36 mL), potassium phosphate monobasic-sodium hydroxide buffer (0.05M, pH 7.4, 44 mL) and 10% palladium on charcoal (0.60 g). The resulting mixture was hydrogenated under 40 psi at 23° C. for 1.25 h. The organic layer was separated and extracted with buffer (2×5 mL). […] Elution of the column with water and lyophilization of the appropriate fractions gave the title compound 0.186 g (64%) as a yellowish powder, ir (KBr) .nu.max : 3700-3100 (OH), 1760 (C= O of β-lactam), 1595 cm^-1 (carboxylate), ^1 Hmr (D2 O) δ: 1.21 (3H, d, J=6.3 Hz, CH3 CHOH), 2.45 (6H, s, CH3 on pyridinium), 2.81 (d, J=9.2 Hz, H-4), 2.96 (d, J=9.2 Hz, H-4), 3.22 (dd, J=2.6 Hz, J=6.2 Hz, H-6), 3.40 (t, J=6.2 Hz, CH2 S), 3.84 (dd, J=9.2 Hz, J=2.6 Hz, H-5), 4.15 (m, CH3 CHOH), 4.71 (t, J=6.2 Hz, CH2 N^+), 8.21 (1H, s, Hp of pyridinium), 8.46 (2H, s, Ho of pyridinium), uv (H2 O) λmax : 279 (ε8345), 296 (ε7714) m, [α]D^23 +40.7 (c 0.53, H2 O), .tau.1/2 =16.9 h (measured at a concentration of […] in phosphate buffer pH 7.4 at 36.8° C.). […]

[15] = system: E. coli A20341-1; experiment: MIC by tube dilution in Nutrient Broth; type: cell-based; conditions: overnight at 37° C.
[16] = system: K. pneumoniae A-9664; experiment: MIC by tube dilution in Nutrient Broth; type: cell-based; conditions: additional data; overnight at 37° C.
[17] = system: P. vulgaris A21559; experiment: MIC by tube dilution in Nutrient Broth; type: cell-based; conditions: additional data; overnight at 37° C.
[18] = system: S. marcescens A20019; experiment: MIC by tube dilution in Nutrient Broth; type: cell-based; conditions: additional data; overnight at 37° C.
[19] = system: P. aeruginosa A21213; experiment: MIC by tube dilution in Nutrient Broth; type: cell-based; conditions: additional data; overnight at 37° C.
[20] = Escherichia coli, A15119, additional data, read-out: MIC

Row | Compound | MIC [1] | MIC [2] | MIC ([3]; 50% serum) | MIC [3] | MIC [5] | MIC [8] | MIC [9] | MIC [12] | MIC [17] | MIC [19] | other results
1 | C[C@@H](O)[C@H]1C(=O)N2C(C(=O)[O-])=C(SCC[n+]3cccc(N)c3)C[C@H]12 [Ex. 14, (5R,6S)-3-[2-(3-aminopyridinio)ethylthio]-6-[1-(R)-hydroxyethyl]-7-oxo-1-azabicyclo[3.2.0]hept-2-ene-2-carboxylate] |  |  |  |  |  |  |  |  |  |  | MIC [6, 20]: 0.03 µg/mL (≈ 0.0859 µM)
2 | C[C@@H](O)[C@H]1C(=O)N2C(C(=O)[O-])=C(SC3CCCCC3[n+]3ccccc3)C[C@H]12 (single isomer, unassigned) [Ex. 16 (cmp. "B"), (5R,6S)3-[2-[(R or S)-(1-pyridinium)]-1-(R or S)-cyclohexylthio]-6-[1-(R)-hydroxyethyl]-7-oxo-1-azabicyclo(3.2.0)hept-2-ene-2-carboxylate] |  |  |  | 0.13 µg/mL (≈ 0.335 µM) |  |  | 0.5 µg/mL (≈ 1.29 µM) |  | 0.13 µg/mL (≈ 0.335 µM) | 8 µg/mL (≈ 20.6 µM) | t1/2 [14]: 20.2 h
3 | C[C@@H](O)[C@H]1C(=O)N2C(C(=O)[O-])=C(SC3CCCCC3[n+]3ccccc3)C[C@H]12 (single isomer, unassigned) [Ex. 16 (cmp. "A"), (5R,6S)3-[2-[(R or S)-(1-pyridinium)]-1-(R or S)-cyclohexylthio]-6-[1-(R)-hydroxyethyl]-7-oxo-1-azabicyclo(3.2.0)hept-2-ene-2-carboxylate] | 0.004 µg/mL (≈ 0.0103 µM) | 0.004 µg/mL (≈ 0.0103 µM) | 0.06 µg/mL (≈ 0.154 µM) | 0.06 µg/mL (≈ 0.154 µM) | 4 µg/mL (≈ 10.3 µM) | 0.13 µg/mL (≈ 0.335 µM) | 0.13 µg/mL (≈ 0.335 µM) | 32 µg/mL (≈ 82.4 µM) | 0.06 µg/mL (≈ 0.154 µM) | 2 µg/mL (≈ 5.15 µM) | MIC ([4]; Staphylococcus aureus, read-out: MIC): 0.13 µg/mL (≈ 0.335 µM); MIC ([15]; additional data): 0.06 µg/mL (≈ 0.154 µM); MIC [16]: 0.13 µg/mL (≈ 0.335 µM); MIC [10]: 4 µg/mL (≈ 10.3 µM); half-life ([14]; pH 7.4, t1/2): 16.6 h
4 | COc1ccc[n+](CCSC2=C(C(=O)[O-])N3C(=O)[C@H]([C@@H](C)O)[C@H]3C2)c1 [Ex. 10, 3-[2-(3-methoxy-1-pyridinium)ethylthio]6α-[1'-(R)-hydroxyethyl]-7-oxo-1-azabicyclo(3.2.0)hept-2-ene-2-carboxylate] |  |  |  |  |  |  |  |  |  |  | MIC ([15]; Escherichia coli, A203411, additional data, read-out: MIC): 0.06 µg/mL (≈ 0.165 µM)
5 | Cc1cccc(C)[n+]1CCSC1=C(C(=O)[O-])N2C(=O)[C@H]([C@@H](C)O)[C@H]2C1 [Ex. 12] |  |  |  |  |  |  |  |  |  |  | MIC [6, 20]: 0.03 µg/mL (≈ 0.0828 µM)

Further lines, with some results ahead:

Row | MIC [1] | MIC [2] | MIC ([3]; 50% serum) | MIC [3] | MIC [5] | MIC [8] | MIC [9] | MIC [12] | MIC [17] | MIC [19] | Compound | other results
6 | 0.004 µg/mL (≈ 0.0115 µM) | 0.004 µg/mL (≈ 0.0115 µM) | 0.06 µg/mL (≈ 0.172 µM) | 0.016 µg/mL (≈ 0.0459 µM) | 2 µg/mL (≈ 5.74 µM) | 0.13 µg/mL (≈ 0.373 µM) | 0.13 µg/mL (≈ 0.373 µM) | 8 µg/mL (≈ 23 µM) |  |  | CC(C[n+]1ccccc1)SC1=C(C(=O)[O-])N2C(=O)[C@H]([C@@H](C)O)[C@H]2C1 (single isomer, unassigned) [Ex. 15 (cmp. "A")] | MIC [4]: 0.06 µg/mL (≈ 0.172 µM); MIC ([6]; additional data): 0.03 µg/mL (≈ 0.0861 µM); MIC [7]: 0.13 µg/mL (≈ 0.373 µM); MIC [10]: 0.25 µg/mL (≈ 0.718 µM); MIC [11]: 0.25 µg/mL (≈ 0.718 µM); MIC [13]: 0.13 µg/mL (≈ 0.373 µM); t1/2 [14]: 15.6 h
7 | 0.001 µg/mL (≈ 0.00287 µM) | 0.001 µg/mL (≈ 0.00287 µM) | 0.016 µg/mL (≈ 0.0459 µM) | 0.004 µg/mL (≈ 0.0115 µM) | 0.5 µg/mL (≈ 1.44 µM) | 0.03 µg/mL (≈ 0.0861 µM) | 0.06 µg/mL (≈ 0.172 µM) | 32 µg/mL (≈ 91.8 µM) | 0.016 µg/mL (≈ 0.0459 µM) | 1 µg/mL (≈ 2.87 µM) | CC(C[n+]1ccccc1)SC1=C(C(=O)[O-])N2C(=O)[C@H]([C@@H](C)O)[C@H]2C1 (single isomer, unassigned) [Ex. 15 (cmp. "B")] | MIC [4]: 0.016 µg/mL (≈ 0.0459 µM); MIC ([6]; additional data): 0.008 µg/mL (≈ 0.023 µM); MIC ([15]; additional data): 0.016 µg/mL (≈ 0.0459 µM); MIC [16]: 0.03 µg/mL (≈ 0.0861 µM); MIC [7]: 0.06 µg/mL (≈ 0.172 µM); MIC [18]: 0.03 µg/mL (≈ 0.0861 µM); MIC [13]: 0.06 µg/mL (≈ 0.172 µM)
